Paper PMC8429728, “TNK1 is a ubiquitin-binding and 14-3-3-regulated kinase that can be targeted to block tumor growth” (Nature Communications, 2021)
Where two headings read alike, the source gives them in different places.

Key:
Test in all cases: biochemical
Parameters in all cases: Reaction Biology 371-kinase panel at Km ATP, per cent enzyme activity relative to DMSO, single dose in duplicate
Details in all cases: duplicate measurements, Km ATP
PKCzeta = target: T1, PKCzeta (Homo sapiens, UniProt Q05513)
T1 construct: gene PRKCZ
Outline: (§1)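 Percent kinase activity relative to vehicle (DMSO) is reported for a 371-kinase in vitro panel at 300 nM compound; IC50 values derive from variable-slope sigmoidal fits with the lower plateau fixed at 0.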

TRKC = target: T2, TRKC (Homo sapiens, UniProt Q16288)
T2 construct: gene NTRK3
Outline: as §1

LCK = LCK (Homo sapiens, UniProt P06239)
Outline: as §1

IRR/INSRR = IRR/INSRR (Homo sapiens, UniProt P14616)
Outline: as §1

DCAMKL2 = target: T3, DCAMKL2 (Homo sapiens, UniProt Q8N568)
T3 construct: gene DCLK2
T3 sequence (Q8N568 whole entry): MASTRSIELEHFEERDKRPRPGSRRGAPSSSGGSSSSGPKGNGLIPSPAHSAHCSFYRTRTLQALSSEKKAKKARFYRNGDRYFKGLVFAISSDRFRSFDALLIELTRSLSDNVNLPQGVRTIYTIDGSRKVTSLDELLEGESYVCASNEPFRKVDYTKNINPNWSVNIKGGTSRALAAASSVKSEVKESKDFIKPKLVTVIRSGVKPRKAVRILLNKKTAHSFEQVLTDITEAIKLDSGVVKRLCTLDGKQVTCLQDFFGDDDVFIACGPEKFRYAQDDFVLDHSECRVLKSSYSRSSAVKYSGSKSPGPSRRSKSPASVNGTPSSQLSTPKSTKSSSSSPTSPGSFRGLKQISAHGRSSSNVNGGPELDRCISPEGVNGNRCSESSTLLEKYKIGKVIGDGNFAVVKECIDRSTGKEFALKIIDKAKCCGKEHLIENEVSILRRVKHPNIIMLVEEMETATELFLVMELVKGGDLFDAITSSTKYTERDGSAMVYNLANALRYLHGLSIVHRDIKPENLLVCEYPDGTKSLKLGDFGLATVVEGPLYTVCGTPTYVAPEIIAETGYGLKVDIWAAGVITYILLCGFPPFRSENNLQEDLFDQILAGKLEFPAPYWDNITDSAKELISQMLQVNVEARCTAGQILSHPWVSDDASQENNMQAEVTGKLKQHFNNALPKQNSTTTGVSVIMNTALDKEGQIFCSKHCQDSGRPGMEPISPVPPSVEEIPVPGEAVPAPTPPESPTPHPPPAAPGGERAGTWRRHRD
Outline: as §1

DRAK1/STK17A = DRAK1/STK17A (Homo sapiens, UniProt Q9UEE5)
Sequence of DRAK1/STK17A (Q9UEE5 whole entry): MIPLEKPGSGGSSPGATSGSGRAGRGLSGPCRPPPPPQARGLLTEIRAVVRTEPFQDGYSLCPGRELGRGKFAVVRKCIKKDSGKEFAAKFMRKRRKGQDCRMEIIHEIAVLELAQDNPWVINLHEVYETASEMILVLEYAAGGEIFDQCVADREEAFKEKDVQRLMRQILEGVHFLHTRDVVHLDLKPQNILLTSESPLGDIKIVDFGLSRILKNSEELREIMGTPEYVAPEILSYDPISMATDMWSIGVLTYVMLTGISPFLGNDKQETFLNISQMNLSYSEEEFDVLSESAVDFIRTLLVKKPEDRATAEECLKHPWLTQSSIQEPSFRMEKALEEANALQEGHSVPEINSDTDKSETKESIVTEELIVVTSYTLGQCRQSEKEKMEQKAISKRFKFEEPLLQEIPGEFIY
Outline: as §1

TAOK3/JIK = TAOK3/JIK (Homo sapiens, UniProt Q9H2K8)
Outline: as §1

ALK6/BMPR1B = ALK6/BMPR1B (Homo sapiens, UniProt O00238)
Outline: as §1

EPHB1 = EPHB1 (Homo sapiens, UniProt P54762)
Outline: as §1

EPHB3 = EPHB3 (Homo sapiens, UniProt P54753)
Sequence of EPHB3 (P54753 whole entry): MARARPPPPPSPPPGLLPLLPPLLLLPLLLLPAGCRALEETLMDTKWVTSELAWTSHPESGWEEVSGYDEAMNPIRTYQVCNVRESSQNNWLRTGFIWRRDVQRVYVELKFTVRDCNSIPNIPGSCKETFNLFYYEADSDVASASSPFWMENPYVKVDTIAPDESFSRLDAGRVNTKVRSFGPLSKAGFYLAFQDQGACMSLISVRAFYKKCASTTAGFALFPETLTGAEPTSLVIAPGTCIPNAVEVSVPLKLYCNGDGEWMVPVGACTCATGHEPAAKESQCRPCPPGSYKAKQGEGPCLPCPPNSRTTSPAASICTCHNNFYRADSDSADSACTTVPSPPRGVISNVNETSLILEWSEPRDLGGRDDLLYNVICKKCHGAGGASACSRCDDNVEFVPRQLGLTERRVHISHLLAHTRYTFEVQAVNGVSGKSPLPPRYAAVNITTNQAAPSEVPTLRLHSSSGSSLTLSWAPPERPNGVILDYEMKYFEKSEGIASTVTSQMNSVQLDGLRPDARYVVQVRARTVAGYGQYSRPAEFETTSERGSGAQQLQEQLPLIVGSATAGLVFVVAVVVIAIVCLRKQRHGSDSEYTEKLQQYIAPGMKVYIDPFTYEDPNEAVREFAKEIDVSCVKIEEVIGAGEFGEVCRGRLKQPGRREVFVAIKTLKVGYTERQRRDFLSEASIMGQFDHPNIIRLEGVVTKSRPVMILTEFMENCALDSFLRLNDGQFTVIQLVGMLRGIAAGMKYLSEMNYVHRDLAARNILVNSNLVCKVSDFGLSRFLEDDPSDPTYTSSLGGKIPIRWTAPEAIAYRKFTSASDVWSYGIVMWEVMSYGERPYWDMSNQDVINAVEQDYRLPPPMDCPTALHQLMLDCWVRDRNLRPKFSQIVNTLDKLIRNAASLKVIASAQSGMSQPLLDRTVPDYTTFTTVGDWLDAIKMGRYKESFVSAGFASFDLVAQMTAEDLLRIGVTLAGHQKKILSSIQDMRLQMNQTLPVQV
Outline: as §1

MEK5 = target: T4, MEK5 (Homo sapiens, UniProt Q13163)
T4 construct: gene MAP2K5
T4 sequence (Q13163 whole entry): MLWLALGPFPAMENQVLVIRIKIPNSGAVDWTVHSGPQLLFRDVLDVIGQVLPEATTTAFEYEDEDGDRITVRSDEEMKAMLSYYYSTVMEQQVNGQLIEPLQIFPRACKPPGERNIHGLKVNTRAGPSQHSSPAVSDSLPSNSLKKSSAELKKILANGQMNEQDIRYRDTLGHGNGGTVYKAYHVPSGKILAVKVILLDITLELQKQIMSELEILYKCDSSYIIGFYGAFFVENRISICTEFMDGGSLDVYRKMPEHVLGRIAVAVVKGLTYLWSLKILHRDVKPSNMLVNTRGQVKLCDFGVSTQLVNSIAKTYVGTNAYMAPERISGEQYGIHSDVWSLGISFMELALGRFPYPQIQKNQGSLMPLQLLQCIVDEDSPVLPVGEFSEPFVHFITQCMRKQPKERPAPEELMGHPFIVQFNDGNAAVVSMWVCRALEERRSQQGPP
Outline: as §1

CDK6/cyclin D1 = CDK6/cyclin D1 (Homo sapiens, UniProt Q00534)
Outline: as §1

IGF1R = IGF1R (Homo sapiens, UniProt P08069)
Outline: as §1

NEK3 = NEK3 (Homo sapiens, UniProt P51956)
Sequence of NEK3 (P51956 whole entry): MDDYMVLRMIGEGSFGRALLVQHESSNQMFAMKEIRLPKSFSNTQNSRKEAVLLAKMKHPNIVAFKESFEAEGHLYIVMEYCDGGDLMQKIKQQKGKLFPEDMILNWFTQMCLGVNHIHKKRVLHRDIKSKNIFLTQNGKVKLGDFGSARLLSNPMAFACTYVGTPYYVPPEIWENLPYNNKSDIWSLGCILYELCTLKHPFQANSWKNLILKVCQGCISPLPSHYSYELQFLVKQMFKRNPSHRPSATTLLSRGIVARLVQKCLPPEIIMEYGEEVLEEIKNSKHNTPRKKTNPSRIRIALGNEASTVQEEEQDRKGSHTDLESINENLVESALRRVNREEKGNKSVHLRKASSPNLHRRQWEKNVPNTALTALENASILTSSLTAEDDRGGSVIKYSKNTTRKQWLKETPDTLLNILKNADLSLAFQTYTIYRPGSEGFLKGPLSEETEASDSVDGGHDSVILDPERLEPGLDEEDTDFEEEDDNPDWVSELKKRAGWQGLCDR
Outline: as §1

TTBK2 = TTBK2 (Homo sapiens, UniProt Q6IQ55)
Sequence of TTBK2 (Q6IQ55 whole entry): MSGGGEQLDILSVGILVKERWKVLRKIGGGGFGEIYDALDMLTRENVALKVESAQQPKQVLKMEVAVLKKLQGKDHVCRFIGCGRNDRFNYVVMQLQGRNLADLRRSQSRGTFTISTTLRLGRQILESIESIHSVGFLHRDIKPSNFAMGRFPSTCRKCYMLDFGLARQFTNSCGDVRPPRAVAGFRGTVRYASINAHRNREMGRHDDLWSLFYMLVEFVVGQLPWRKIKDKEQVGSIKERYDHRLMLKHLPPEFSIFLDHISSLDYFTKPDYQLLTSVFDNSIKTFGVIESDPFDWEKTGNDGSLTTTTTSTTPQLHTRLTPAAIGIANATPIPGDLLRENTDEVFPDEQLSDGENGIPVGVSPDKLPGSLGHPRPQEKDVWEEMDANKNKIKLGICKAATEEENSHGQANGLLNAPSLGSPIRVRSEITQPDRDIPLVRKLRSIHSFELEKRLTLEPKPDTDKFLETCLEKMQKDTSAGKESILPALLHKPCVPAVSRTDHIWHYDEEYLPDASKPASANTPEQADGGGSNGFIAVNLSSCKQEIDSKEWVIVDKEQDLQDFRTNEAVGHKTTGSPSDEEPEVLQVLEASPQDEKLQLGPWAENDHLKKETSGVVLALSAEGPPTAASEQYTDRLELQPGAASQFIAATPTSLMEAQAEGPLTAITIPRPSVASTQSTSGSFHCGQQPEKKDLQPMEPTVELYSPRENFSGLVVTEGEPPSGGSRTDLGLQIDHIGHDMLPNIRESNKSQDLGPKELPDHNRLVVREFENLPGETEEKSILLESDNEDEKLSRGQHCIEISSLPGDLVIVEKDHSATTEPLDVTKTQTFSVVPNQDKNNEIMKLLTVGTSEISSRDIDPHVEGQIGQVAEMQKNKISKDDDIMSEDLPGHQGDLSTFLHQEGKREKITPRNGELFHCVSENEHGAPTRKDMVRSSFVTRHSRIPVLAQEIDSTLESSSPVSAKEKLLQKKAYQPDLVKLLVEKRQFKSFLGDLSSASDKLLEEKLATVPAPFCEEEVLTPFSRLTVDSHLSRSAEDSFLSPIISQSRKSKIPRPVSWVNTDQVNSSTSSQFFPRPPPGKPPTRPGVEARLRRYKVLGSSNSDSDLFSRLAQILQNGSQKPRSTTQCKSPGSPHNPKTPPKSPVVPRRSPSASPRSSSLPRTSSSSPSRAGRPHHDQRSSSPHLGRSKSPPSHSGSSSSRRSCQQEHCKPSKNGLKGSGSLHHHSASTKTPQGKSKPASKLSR
Outline: as §1

MYO3A = MYO3A (Homo sapiens, UniProt Q8NEV4)
Outline: as §1

AKT3 = AKT3 (Homo sapiens, UniProt Q9Y243)
Outline: as §1

FLT3 = FLT3 (Homo sapiens, UniProt P36888)
Outline: as §1

PKAcg = target: T5, PKAcg (Homo sapiens, UniProt P22612)
T5 construct: gene PRKACG
Outline: as §1

SGK3/SGKL = SGK3/SGKL (Homo sapiens, UniProt Q96BR1)
Sequence of SGK3/SGKL (Q96BR1 whole entry): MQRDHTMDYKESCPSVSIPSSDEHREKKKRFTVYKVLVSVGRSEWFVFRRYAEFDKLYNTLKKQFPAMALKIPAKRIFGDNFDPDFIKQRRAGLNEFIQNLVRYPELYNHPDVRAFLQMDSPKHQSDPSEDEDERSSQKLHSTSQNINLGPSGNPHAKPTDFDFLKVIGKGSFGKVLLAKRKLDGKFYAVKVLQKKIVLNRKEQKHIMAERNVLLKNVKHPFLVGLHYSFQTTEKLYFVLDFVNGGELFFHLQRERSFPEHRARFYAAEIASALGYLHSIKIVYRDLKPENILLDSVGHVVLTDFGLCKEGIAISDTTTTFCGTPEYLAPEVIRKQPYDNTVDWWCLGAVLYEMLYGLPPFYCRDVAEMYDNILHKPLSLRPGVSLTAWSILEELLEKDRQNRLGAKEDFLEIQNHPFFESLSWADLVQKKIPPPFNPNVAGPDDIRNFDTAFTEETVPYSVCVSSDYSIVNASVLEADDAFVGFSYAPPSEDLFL
Outline: as §1

[1] = read-out: % Enzyme Activity (relative to DMSO controls) / TP-0005801 (0.3µM) / Data 1
[2] = read-out: % Enzyme Activity (relative to DMSO controls) / TP-0005801 (0.3µM) / Data 2

## COc1cc(N2CCN(C)CC2)c(C)cc1Nc1ncc(Br)c(Nc2cccnc2N(C)C)n1 [TP-5801]
PKCzeta; [1]
  remaining activity at 0.3 µM: 97.2%
PKCzeta; [2]
  remaining activity at 0.3 µM: 97.1%
TRKC; [1]
  remaining activity at 0.3 µM: 109%
TRKC; [2]
  remaining activity at 0.3 µM: 104%
LCK; [1]
  remaining activity at 0.3 µM: 101%
LCK; [2]
  remaining activity at 0.3 µM: 99.4%
IRR/INSRR; [1]
  remaining activity at 0.3 µM: 66.7%
IRR/INSRR; [2]
  remaining activity at 0.3 µM: 65.2%
DCAMKL2; [1]
  remaining activity at 0.3 µM: 93.7%
DCAMKL2; [2]
  remaining activity at 0.3 µM: 89.7%
DRAK1/STK17A; [1]
  remaining activity at 0.3 µM: 92%
DRAK1/STK17A; [2]
  remaining activity at 0.3 µM: 88.6%
TAOK3/JIK; [1]
  remaining activity at 0.3 µM: 88.2%
TAOK3/JIK; [2]
  remaining activity at 0.3 µM: 86.8%
ALK6/BMPR1B; [1]
  remaining activity at 0.3 µM: 97.9%
ALK6/BMPR1B; [2]
  remaining activity at 0.3 µM: 97.6%
EPHB1; [1]
  remaining activity at 0.3 µM: 90.7%
EPHB1; [2]
  remaining activity at 0.3 µM: 89%
EPHB3; [1]
  remaining activity at 0.3 µM: 104%
EPHB3; [2]
  remaining activity at 0.3 µM: 102%
MEK5; [1]
  remaining activity at 0.3 µM: 110%
MEK5; [2]
  remaining activity at 0.3 µM: 108%
CDK6/cyclin D1; [1]
  remaining activity at 0.3 µM: 88.2%
CDK6/cyclin D1; [2]
  remaining activity at 0.3 µM: 87.5%
IGF1R; [1]
  remaining activity at 0.3 µM: 16.7%
IGF1R; [2]
  remaining activity at 0.3 µM: 16.2%
NEK3; [1]
  remaining activity at 0.3 µM: 89%
NEK3; [2]
  remaining activity at 0.3 µM: 88%
TTBK2; [1]
  remaining activity at 0.3 µM: 90.3%
TTBK2; [2]
  remaining activity at 0.3 µM: 83.1%
MYO3A; [1]
  remaining activity at 0.3 µM: 69.8%
MYO3A; [2]
  remaining activity at 0.3 µM: 66.3%
AKT3; [1]
  remaining activity at 0.3 µM: 105%
AKT3; [2]
  remaining activity at 0.3 µM: 98.7%
FLT3; [1]
  remaining activity at 0.3 µM: 3.9%
FLT3; [2]
  remaining activity at 0.3 µM: 3.79%
PKAcg; [1]
  remaining activity at 0.3 µM: 95.5%
PKAcg; [2]
  remaining activity at 0.3 µM: 92.1%
SGK3/SGKL; [1]
  remaining activity at 0.3 µM: 108%
SGK3/SGKL; [2]
  remaining activity at 0.3 µM: 105%
